Assay results: US20190254282A1, “Non-Leaching Surface Sanitizer and Wipe with Improved Washability and/or Absorbency” (Livinguard AG, priority 2016, published 2019)

Experiments:
Assay type in all cases: cell-based
[1] = test system: bacteria (Escherichia coli, Staphylococcus aureus, Pseudomonas aeruginosa, and Salmonella enterica); test: Antimicrobial performance of treated textiles against bacteria (Experimental Examples 1); conditions: 6% o.w.f. of the chemical; for efficiency in killing bacteria: polyester textile treated with one single agent; for efficiency for killing bacteria: cotton textile treated with one single agent
Protocol: (§1) All microbiological tests were performed with cultures of the bacteria Escherichia coli American Type Culture Collection (ATCC) 25922, Staphylococcus aureus ATCC 6538, Pseudomonas aeruginosa ATCC 15442, Salmonella enterica ATCC 10708, and of the fungi Candida albicans ATCC 10231, and Aspergillus Niger ATCC […].
(§2) With Experimental Examples 1, the effect of the application of different numbers of agents to the starting textile materials was studied. The agents applied to the cotton material were taken from the group of silver, PHMB, and propiconazole, which are the three most preferred antimicrobial agents for treating cellulosic textile materials. The agents applied to the polyester material were taken from the group of silver, propiconazole, and quaternary ammonium organosilane compounds, which are the three most preferred antimicrobial agents for treating synthetic textile materials.
(§3) The textiles were treated with (1) each of the agents from the respective group individually, (2) all three tuple combinations of agents from the respective groups, and (3) all three agents from the respective groups together. The total amount of the chemicals in all experiments was 6% o.w.f. Thus, where one single agent was applied to the textile, 6% o.w.f. of the respective chemical was used, where a combination of two agents was applied, 3% o.w.f. of each of the respective two chemicals was used, and where a combination of three agents was applied, 2% o.w.f. of each of the respective three chemicals was used.
(§4) The finishing process was as described above in the context of the working examples, but since no hydrophilic/stain release agent was applied, there was only one process cycle. The fabric was exhausted and then dried and cured in one single pass through the stenter, with the process parameters as described above.

[2] = test system: fungi (Candida albicans and Aspergillus Niger); test: Antimicrobial performance of treated textiles against fungi (Experimental Examples 1); conditions: 6% o.w.f. of the chemical
Protocol: as §1, §2, §3, §4

[3] = test system: microorganisms; test: Tests made by the inventor on alternative metals and azoles adhered to textiles (results not reproduced)
[4] = polyester textile treated with one single agent
[5] = cotton textile treated with one single agent

## CCCCCCCCCCCCCCCCCC[N+](C)(C)CCC[Si](OC)(OC)OC [Dimethyloctadecyl[3-(trimethoxysilyepropyl]ammonium chloride]
[1]
  efficiency in killing bacteria: about equally efficient
[2]; [4]
  efficiency for killing fungi: not efficient

## propiconazole [reference compound]
[1]
  efficiency for killing bacteria: not efficient
  efficiency in killing bacteria: about as efficient against bacteria as silver and quaternary ammonium organosilane
[2]; [5]
  efficiency for killing fungi: efficient
[2]; [4]
  efficiency for killing fungi: works well

## silver
[1]
  efficiency for killing bacteria: about equally efficient
  efficiency in killing bacteria: about equally efficient
[2]; [5]
  efficiency for killing fungi: perform poorly
[2]; [4]
  efficiency for killing fungi: not efficient
[3]
  antimicrobial performance compared with zinc and copper: considerably higher than that of zinc, and even much higher than that of copper
